Assay results published in paper PMC6696147, “Broad-Spectrum Antiviral Natural Products from the Marine-Derived Penicillium sp. IMB17-046” (Molecules, 2019).
Values after ≈ are worked out from the molar mass of the structure shown. Where two headings read alike, the source gives them in different places.

Legend:
HIV-1 = experiment: microbe, parasite or virus in culture; format: cell-based; details: Human immunodeficiency virus 1, SUP-T1, 48 h, read-out: HIV-1 IC50
Helicobacter pylori = experiment: Antibacterial assay, broth micro-dilution MIC, H. pylori; format: cell-based; details: for MIC: Helicobacter pylori; for H. pylori MIC, range over strains: clinically isolated H. pylori, strains G27 and 159 together
Method: (§1) The antibacterial activities against H. pylori, S. aureus, B. subtilis, P. aeruginosa, and K. pneumonia were assayed by examining the MIC using the broth micro-dilution method as previously described.

Staphylococcus aureus = experiment: Antibacterial assay, broth micro-dilution MIC, S. aureus; format: cell-based; details: read-out: MIC against Staphylococcus aureus
Method: as §1

Bacillus subtilis = experiment: Antibacterial assay, broth micro-dilution MIC, B. subtilis; format: cell-based; details: read-out: MIC against Bacillus subtilis
Method: as §1

Pseudomonas aeruginosa = experiment: Antibacterial assay, broth micro-dilution MIC, P. aeruginosa; format: cell-based; details: read-out: MIC against Pseudomonas aeruginosa
Method: as §1

Klebsiella pneumoniae = experiment: Antibacterial assay, broth micro-dilution MIC, K. pneumoniae; format: cell-based; details: read-out: MIC against Klebsiella pneumoniae
Method: as §1

in vitro [1] = details: human
HCV = experiment: Anti-HCV assay; format: cell-based; details: Hepatitis C virus
Method: Anti-HCV assays were carried out as described previously.

[2] = Cytotoxicity assay (MTT), uninfected Huh7.5 cells; format: cell-based; details: human, read-out: HCV CC50
Method: Cytotoxicity of compounds were assayed for the uninfected 293T-Gluc, SupT1, and Huh7.5 cells. 293T-Gluc and Huh7.5 cells were cultured in Dulbecco’s modified Eagle’s medium supplemented with 10% fetal bovine serum (FBS, Invitrogen). SupT1 cells were cultured in RPMI1640 medium supplemented with 10% FBS. Various concentrations of test compounds (1 μL each well) were added to the 293T-Gluc and SupT1 cells (1 × 10^5 cells/well) in 96-well plates. After incubation at 37 °C for 48 h, 10 μL of CCK-8 reagent was added to the cells and they were incubated for another 4 h. Then, the absorbance of each well was recorded at 450 nm. A cytotoxicity assay for Huh7.5 cells was carried out using the MTT method as described previously.

in vitro [3] = details: human; remark: listed apart in the source
[4] = tested on: wild-type and multi-drug resistant HIV-1; design: method as in doi:10.1007/s11426-018-9283-3; details: cited from earlier work
[5] = drug-resistant strain 159, read-out: H. pylori MIC, 159
[6] = drug-sensitive strain G27, read-out: H. pylori MIC, G27

Compound: COc1cc(=O)oc(C=CC=CC=CC(C)=CC2(C)OC(C)C(C)(O)C2O)c1C (single isomer, unassigned; (+)) [Compound 2, (+)-neocitreoviridin]
- IC50 (HIV-1): > 10 µM
- MIC (Helicobacter pylori; [5]): 1 µg/mL (≈ 2.48 µM)
- MIC (Helicobacter pylori; [6]): 4 µg/mL (≈ 9.94 µM)
- H. pylori MIC, range over strains (Helicobacter pylori): 1 to 16 µg/mL
- MIC (Staphylococcus aureus): > 128 µg/mL
- MIC (Bacillus subtilis): > 128 µg/mL
- MIC (Pseudomonas aeruginosa): > 128 µg/mL
- MIC (Klebsiella pneumoniae): > 128 µg/mL
- CC50 (in vitro [1]): > 100 µM

Compound: CC[C@H](C)c1nc(OC)c(Cc2c[nH]c3ccccc23)nc1O [Compound 1, (S)-6-((1H-indol-3-yl)methyl)-3-(sec-butyl)-5-methoxypyrazin-2-ol]
- IC50 (HIV-1): 4.6 ± 0.3 µM
- IC50 (HCV): 7.7 ± 0.2 µM
- CC50 [2]: 116 ± 4.9 µM
- MIC (Helicobacter pylori; [5]): 16 µg/mL (≈ 51.4 µM)
- MIC (Helicobacter pylori; [6]): 4 µg/mL (≈ 12.8 µM)
- H. pylori MIC, range over strains (Helicobacter pylori): 1 to 16 µg/mL
- MIC (Staphylococcus aureus): > 128 µg/mL
- MIC (Bacillus subtilis): > 128 µg/mL
- MIC (Pseudomonas aeruginosa): > 128 µg/mL
- MIC (Klebsiella pneumoniae): > 128 µg/mL

Compound: C=C(CC[C@@H](C)[C@H]1CC=C2C3=C(CC[C@@]21C)[C@@]1(C)CC[C@H](O)CC1CC3=O)C(C)C (stereo partly drawn) [Compound 3, 3β-hydroxyergosta-8,14,24(28)-trien-7-one]
- IC50 (HIV-1): 3.5 ± 0.8 µM

Compound: C=C(CC[C@@H](C)[C@H]1CC[C@H]2C3=C(CC[C@]12C)[C@@]1(C)CC[C@H](O)CC1CC3=O)C(C)C (stereo partly drawn) [Compound 7, 3β-hydroxyergosta-8,24(28)-dien-7-one]
- IC50 (HIV-1): > 10 µM
- CC50 (in vitro [1]): > 100 µM

Compound: CC(C)[C@@H](C)/C=C/[C@@H](C)[C@H]1CC[C@H]2C3=C[C@@H](O)[C@@]4(O)C[C@@H](O)CC[C@]4(C)[C@H]3CC[C@]12C [Compound 8, (22E,24R)-24-methyl-5α-cholesta-7,22-dien-3β,5,6β-triol]
- IC50 (HIV-1): 6.2 ± 0.2 µM

Compound: O=C1Nc2ccc(Cl)cc2[C@@](C#CC2CC2)(C(F)(F)F)O1 [Efavirenz, reference compound]
- CC50 (in vitro [1]): > 100 µM

Compound: Cc1ncc([N+](=O)[O-])n1CCO [Metronidazole, reference compound]
- MIC (Helicobacter pylori; [5]): 16 µg/mL (≈ 93.5 µM)
- MIC (Helicobacter pylori; [6]): 1 µg/mL (≈ 5.84 µM)

Compound: NC(=O)c1ncn([C@@H]2O[C@H](CO)[C@@H](O)[C@H]2O)n1 [Ribavirin, reference compound]
- CC50 (in vitro [3]): > 100 µM

Compound: CCC[C@H](NC(=O)[C@@H]1[C@H]2CCC[C@H]2CN1C(=O)[C@@H](NC(=O)[C@@H](NC(=O)c1cnccn1)C1CCCCC1)C(C)(C)C)C(=O)C(=O)NC1CC1 [VX-950, reference compound]
- IC50 (HCV): 0.05 ± 0.03 µM
- CC50 [2]: 25.8 ± 3.4 µM

Compound: CC(C)[C@H](C)CC[C@](C)(O)[C@H]1C(=O)C[C@H]2[C@@H]3C(=O)C=C4C[C@@H](O)CC[C@]4(C)[C@H]3CC[C@@]21C [amotsterol D, (20S,24R)-3β,20-dihydroxyergostan-5(6)-en-7,16-dione]
- effectiveness against HIV-1 [4]: low micromolar range
